Source: paper PMC5075052, “Modulation of the Substitution Pattern of 5-Aryl-2-Aminoimidazoles Allows Fine-Tuning of Their Antibiofilm Activity Spectrum and Toxicity” (Antimicrobial Agents and Chemotherapy, 2016)
Read-outs that look alike come from different tables or passages of the source.

How the values were obtained:
CsgD = conditions: S. Typhimurium, first 24 h of biofilm formation; cited from earlier work
B. cepacia LMG1222T = assay: Monospecies bacterial biofilm inhibition, static peg assay; assay type: cell-based, Burkholderia cepacia; conditions: 25°C
Description: (§1) A static peg assay, described previously ([27], [74]), was used for bacterial biofilm formation. The Calgary biofilm device consists of a platform carrying 96 polystyrene pegs (Nunc no. 445497) that fits as a microtiter plate lid, with 1 peg hanging into each microtiter plate well (Nunc no. 269789). Twofold serial dilutions of the compounds (dissolved in 100% dimethyl sulfoxide [DMSO] or ethanol) in 100 μl liquid broth (TSB diluted 1/20) per well were prepared in the microtiter plate in duplicate or triplicate with a maximum concentration of 1,600 μM and a minimum concentration of 0.8 μM. Subsequently, an overnight culture of S. Typhimurium ATCC 14028, P. aeruginosa PA14, E. coli TG1, S. epidermidis, S. aureus SH1000, or S. aureus ATCC 6538 (all grown in LB) was diluted 1:100 into TSB diluted 1/20 (or TSB for S. epidermidis, S. aureus SH1000, and S. aureus ATCC 6538), whereas overnight cultures of S. liquefaciens MG44 and B. cepacia LMG1222T were diluted 1:50 into TSB diluted 1/20. P. gingivalis ATCC 33277 cultures were diluted in TSB diluted 1/20 to have a final concentration of 1 × 10^8 cells/ml. Next, 100 μl was added to each well of the microtiter plate, resulting in a total volume of 200 μl medium per well (final concentration range of compounds, 800 μM [2% DMSO or ethanol] to 0.4 μM [0.001% DMSO or ethanol]). In the next step, the pegged lid was placed on the microtiter plate and the plate was incubated for 24 h or 48 h at 25°C or 37°C without shaking. At 37°C, the plates were placed in a sealed container with wet towels on the bottom to prevent evaporation of the growth medium. Biofilms of P. gingivalis ATCC 33277 were grown anaerobically at 37°C for 72 h. During this incubation period, biofilms were formed on the surface of the pegs. After incubation, the optical density at 600 nm (OD600) for the planktonic cells in the microtiter plate was measured using a Synergy MX multimode reader (BioTek, Winooski, VT). This gives a first indication of the effect of the compounds on planktonic growth. For quantification of biofilm formation, the pegs were washed once in 200 μl PBS. The remaining attached bacteria were stained for 30 min with 200 μl 0.1% (wt/vol) crystal violet in an isopropanol-methanol-PBS solution (1:1:18, vol/vol). Excess stain was rinsed off by placing the pegs in a 96-well plate filled with 200 μl distilled water per well. After air drying of the pegs (30 min), the dye bound to the adherent biofilm was extracted with 30% glacial acetic acid (200 μl per well of a 96-well plate). The optical density at 570 nm (OD570) of each well was measured using a Synergy MX multimode reader (BioTek, Winooski, VT). The concentration of each compound needed to inhibit biofilm formation by 50% (BIC50) and the concentration of each compound needed to inhibit planktonic growth by 50% (IC50) were determined from the concentration gradient by using nonlinear curve fitting (GraphPad Prism software, version 5; GraphPad Software, Inc., La Jolla, CA). In the same assay, the effect on planktonic growth was evaluated. The activity was considered biofilm specific if the BIC50 was at least two times lower than the IC50. Data represent the means from at least 3 technical repeats with the corresponding 95% confidence intervals (provided in the supplemental material).

S. aureus ATCC 6538 = assay: Monospecies bacterial biofilm inhibition, static peg assay (Calgary device, crystal violet; planktonic OD600); assay type: cell-based, Staphylococcus aureus
Description: as §1

S. aureus SH1000 [1] = assay: Monospecies bacterial biofilm inhibition, static peg assay; assay type: cell-based, Staphylococcus aureus
Description: as §1

S. liquefaciens MG44 = assay: as above; assay type: cell-based, Serratia liquefaciens; conditions: S. liquefaciens MG44, 25°C
Description: as §1

P. aeruginosa PAO1 = conditions: cited from earlier work
E. coli TG1 = assay: Monospecies bacterial biofilm inhibition, static peg assay; assay type: cell-based, Escherichia coli
Description: as §1

[2] = test system: S. Typhimurium ATCC 14028; assay: as above; assay type: cell-based, Salmonella enterica serovar Typhimurium; conditions: S. Typhimurium ATCC 14028, 25°C
Description: as §1

S. epidermidis = assay: as above; assay type: cell-based, Staphylococcus epidermidis; conditions: 37°C
Description: as §1

C. albicans SC5314 = assay: Inhibition of C. albicans biofilms, CellTiter-Blue quantification; assay type: cell-based, Candida albicans; conditions: C. albicans SC5314, 37°C, CTB method, read-out: BIC50 (μM) for C. albicans SC5314 (37°C)
Description: The potential of the compounds to prevent C. albicans SC5314 biofilm formation was assessed using the CellTiter-Blue (CTB) quantification method ([75]). […]. Twofold serial dilutions of the compounds (dissolved in 100% DMSO or ethanol) in 100 μl RPMI 1640 medium per well were prepared in a round-bottom polystyrene 96-well microtiter plate (TPP; Trasadingen, Switzerland) in duplicate or triplicate with a maximum concentration of 1,600 μM and a minimum concentration of 0.8 μM. One hundred microliters of the cell suspension was added to each well of the microtiter plate, resulting in a total volume of 200 μl medium per well (final concentration range of compounds, 800 μM [2% DMSO or ethanol] to 0.4 μM [0.001% DMSO or ethanol]). After 16 h of static incubation at 37°C, the biofilms were washed and quantified by the CTB method as described previously ([73]).

P. aeruginosa PA14 = assay: Monospecies bacterial biofilm inhibition, static peg assay; assay type: cell-based, Pseudomonas aeruginosa
Description: as §1

S. aureus SH1000 [3] = test system: S. aureus SH1000; parameters: method as in PMID 23208606, PMID 19959627; conditions: cited from earlier work
E. coli F18 = test system: E. coli F18; parameters: method as in PMID 23208606, PMID 19959627; conditions: cited from earlier work
E. coli VR50 = test system: E. coli VR50; parameters: method as in PMID 23208606, PMID 19959627; conditions: cited from earlier work
[4] = Burkholderia cepacia, read-out: BIC50
[5] = Burkholderia cepacia, read-out: IC50 (planktonic growth)
[6] = Staphylococcus aureus, ATCC6538, read-out: BIC50 (concentration needed to inhibit biofilm formation by 50%), S. aureus ATCC 6538, 37°C
[7] = Staphylococcus aureus, ATCC6538, read-out: IC50 (concentration needed to inhibit planktonic growth by 50%), S. aureus ATCC 6538, 37°C, planktonic OD600
[8] = Staphylococcus aureus, SH1000, S. aureus SH1000, 37°C, read-out: BIC50
[9] = Staphylococcus aureus, SH1000, S. aureus SH1000, 37°C, read-out: IC50 (planktonic growth)
[10] = Serratia liquefaciens, read-out: BIC50
[11] = Serratia liquefaciens, read-out: IC50 (planktonic growth)
[12] = Escherichia coli, TG1, E. coli TG1, 25°C, read-out: BIC50
[13] = Escherichia coli, TG1, E. coli TG1, 25°C, read-out: IC50 (planktonic growth)
[14] = Salmonella enterica, read-out: BIC50
[15] = Salmonella enterica, read-out: IC50 (planktonic growth)
[16] = Staphylococcus epidermidis, read-out: BIC50
[17] = Staphylococcus epidermidis, read-out: IC50 (planktonic growth)
[18] = Pseudomonas aeruginosa, PA14, P. aeruginosa PA14, 25°C, read-out: BIC50
[19] = Pseudomonas aeruginosa, PA14, P. aeruginosa PA14, 25°C, read-out: IC50 (planktonic growth)
[20] = read-out: IC50 (planktonic growth)

Row | Molecule | IC50 (B. cepacia LMG1222T; [4]) [µM] | IC50 (B. cepacia LMG1222T; [5]) [µM] | IC50 (S. aureus ATCC 6538; [6]) [µM] | IC50 (S. aureus ATCC 6538; [7]) [µM] | IC50 (S. aureus SH1000 [1]; [8]) [µM] | IC50 (S. aureus SH1000 [1]; [9]) [µM] | IC50 (S. liquefaciens MG44; [10]) [µM] | IC50 (S. liquefaciens MG44; [11]) [µM] | concentration at which biofilm formation is inhibited (P. aeruginosa PAO1) [µM] | IC50 (E. coli TG1; [12]) [µM] | IC50 (E. coli TG1; [13]) [µM] | IC50 [2, 14] [µM] | IC50 [2, 15] [µM] | IC50 (S. epidermidis; [16]) [µM] | IC50 (S. epidermidis; [17]) [µM] | IC50 (C. albicans SC5314; Candida albicans) [µM] | IC50 (P. aeruginosa PA14; [18]) [µM] | IC50 (P. aeruginosa PA14; [19]) [µM] | further results
1 | Nc1ncc(-c2ccccc2)[nH]1 [5-phenyl-2-aminoimidazole] | – | – | – | – | – | – | – | – | – | – | – | – | – | – | – | – | – | – | effect on transcription of CsgD and regulon genes csgB and adrA (CsgD): reduces the transcription of CsgD
2 | O=c1cc(-c2ccccc2)oc2cc(O)c(O)c(O)c12 [Baicalein, reference compound] | 48.9 | > 400 | > 400 | > 400 | 77.5 | > 400 | > 400 | > 400 | 20 | 1.2 | ~23.5 | > 400 | > 400 | > 400 | > 400 | 273 | > 400 | > 400 | –
3 | O=C(N/N=C/c1ccc([N+](=O)[O-])o1)c1ccc(O)cc1 [Nifuroxazide, reference compound] | > 400 | > 400 | 65.5 | 125 | > 400 | > 400 | > 400 | > 400 | 70 | 12.2 | > 400 | > 400 | > 400 | 46.9 | ~43.4 | > 400 | > 400 | > 400 | –
4 | Tannic acid [reference compound] | – | – | – | – | – | – | – | – | – | – | – | – | – | – | – | – | – | – | concentration at which biofilm formation is inhibited (S. aureus SH1000 [3]): 20 µM; IC50 (B. cepacia LMG1222T; read-out: BIC50): 1.9 µM; IC50 (B. cepacia LMG1222T; [20]): > 400 µM; IC50 (S. aureus ATCC 6538; S. aureus ATCC 6538, 37°C, planktonic OD600, read-out: IC50 (concentration needed to inhibit planktonic growth by 50%)): > 400 µM; IC50 (S. aureus ATCC 6538; S. aureus ATCC 6538, 37°C, read-out: BIC50 (concentration needed to inhibit biofilm formation by 50%)): ~300 µM; IC50 (S. aureus SH1000 [1]; S. aureus SH1000, 37°C, read-out: BIC50): 115 µM; IC50 (S. aureus SH1000 [1]; S. aureus SH1000, 37°C, read-out: IC50 (planktonic growth)): > 400 µM; IC50 (S. liquefaciens MG44; read-out: BIC50): > 400 µM; IC50 (S. liquefaciens MG44; [20]): > 400 µM; IC50 (E. coli TG1; E. coli TG1, 25°C, read-out: BIC50): ~195 µM; IC50 (E. coli TG1; E. coli TG1, 25°C, read-out: IC50 (planktonic growth)): > 400 µM; IC50 ([2]; read-out: BIC50): 18.8 µM; IC50 [2, 20]: > 400 µM; IC50 (S. epidermidis; read-out: BIC50): > 400 µM; IC50 (S. epidermidis; [20]): > 400 µM; IC50 (C. albicans SC5314): > 400 µM; concentration at which biofilm formation is inhibited (E. coli F18): 20 µM; concentration at which biofilm formation is inhibited (E. coli VR50): 20 µM; IC50 (P. aeruginosa PA14; P. aeruginosa PA14, 25°C, read-out: BIC50): 27.7 µM; IC50 (P. aeruginosa PA14; P. aeruginosa PA14, 25°C, read-out: IC50 (planktonic growth)): > 400 µM
